From publication PMC10247892 (Biomedicine & Pharmacotherapy, 2023)

Tests used:
[1] = tested on: wildtype SARS-CoV-2 virus (D614G variant); parameters: species or system golden Syrian hamsters; details: hamster, in vivo
SARS-CoV-2 D614G = test: SARS-CoV-2 antiviral activity in a human nasal epithelial model; type: cell-based; details: HNE model
SARS-CoV-2 = SARS-CoV-2 replication on Calu-3 cells; type: cell-based; details: non-cytotoxic concentrations

## Methyl-β-cyclodextrin [MβCD]
[1]
  Prophylactic effect (in words): less potent prophylactic effect
SARS-CoV-2 D614G; 2.5 mM constantly in the basal side
  Reduction of viral replication: 11%
SARS-CoV-2 D614G; 2.5 mM on the apical side (initial addition), 48 h pi
  Reduction of viral replication: 74%

## OC[C@H]1O[C@@H]2O[C@H]3[C@H](O)[C@@H](O)[C@@H](O[C@H]4[C@H](O)[C@@H](O)[C@@H](O[C@H]5[C@H](O)[C@@H](O)[C@@H](O[C@H]6[C@H](O)[C@@H](O)[C@@H](O[C@H]7[C@H](O)[C@@H](O)[C@@H](O[C@H]8[C@H](O)[C@@H](O)[C@@H](O[C@H]1[C@H](O)[C@H]2O)O[C@@H]8CO)O[C@@H]7CO)O[C@@H]6CO)O[C@@H]5CO)O[C@@H]4CO)O[C@@H]3CO [β-CD, ß-Cyclodextrin]
SARS-CoV-2; D614G variant
  Inhibition of SARS-CoV-2 viral activity (in words): inhibited the SARS-CoV-2 viral activity
SARS-CoV-2; Omicron BA.1 variant
  Inhibition of SARS-CoV-2 viral activity (in words): inhibited the SARS-CoV-2 viral activity

## CCC(CC)COC(=O)[C@H](C)N[P@](=O)(OC[C@H]1O[C@@](C#N)(c2ccc3c(N)ncnn23)[C@H](O)[C@@H]1O)Oc1ccccc1 [Remdesivir]
SARS-CoV-2 D614G; drug in the basal medium
  Effect on viral replication (in words): completely blocked it
